The values that follow come from patent US20210393585A1, “METHOD FOR PREVENTING AND/OR TREATING A STRESS-INDUCED DISEASE” (TZU CHI UNIVERSITY, priority 2020, published 2021).

Holding throughout (assay type): in vivo
Assay [1] relates to B57BL/6J mice. The assay is described as follows: Cold stress-mediated immunosuppression in anti-platelet (CD41) Ig induced immune thrombocytopenia (ITP) model, platelet counts. The note with it: for rescue of cold stress-mediated immunosuppression (ITP model): FIG. 8. The procedure: (§1) Experiment outlines (A and C). The effects of tanshinone IIA treatments on the cold-mediated amelioration of immune thrombocytopenia (ITP) (B) and cold-suppressed bacterial clearance (D) were analyzed. The data are representative of three independent experiments with two mice per group (n=6). ** P<0.01 compared with the respective vehicle (25° C.) groups, ##P<0.01 compared with the respective tanshinone IIA 25° C. groups (B and D).
The effects of tanshinone I (A), crytotanshinone (B), tanshinone IIA sodium sulfate (C) treatments on the cold-mediated amelioration of immune thrombocytopenia (ITP) were analyzed. The data are representative of three independent experiments with two mice per group (n=6). ** P<0.01 compared with the respective vehicle (25° C.) groups, ##P<0.01 compared with the respective tanshinone IIA 25° C. groups.
(§2) Autoimmune thrombocytopenia (ITP) mouse model, through intravascular injections of anti-platelet (CD41) Ig following previously reported methods (Huang et al., Blood 2010; 116:5002-9), was employed to investigate the immunosuppressive property of cold exposure and restraint stress, and immune enhancing properties of tanshinone IIA and its derivatives. The B57BL/6J mice were intravenously injected with 0.1 mg/kg (body weight) of an antiplatelet monoclonal antibody (rat antimouse integrin αIIb/CD41 Ig, clone MWReg30, BD PharMingen) to induce ITP. Mice with or without injections of anti-CD41 Ig were subjected to cold exposure and restraint stress. To address the immune enhancing properties of tanshinone IIA, these mice were further treated with or without tanshinone I, tanshinone IIA, tanshinone IIA sodium sulfate, crytotanshinone (10-2 to 10 mg/kg) treatments. To determine the mouse platelet counts, whole blood samples (100-120 μL) of the mice were collected from the retro-orbital venous plexus and mixed with an anticoagulant, a citrate dextrose solution (38 mM citric acid, 75 mM sodium citrate, and 100 mM dextrose), in Eppendorf tubes. Subsequently, platelet counts were measured using a hematology analyzer (KX-21N, Sysmex) at various time intervals as previously described (Chan et al., Oncotarget 2018; 9:12781-95; Huang et al., Blood 2010; 116:5002-9).

Assay [2] deals with B57BL/6J mice. The assay is described as follows: Restraint stress-mediated immunosuppression in anti-platelet (CD41) Ig induced immune thrombocytopenia (ITP) model, platelet counts. The note with it: for rescue of restraint stress-mediated immunosuppression (ITP model): restraint (psychological) stress, FIG. 7. The procedure: Experiment outlines (A). The effects of tanshinone IIA treatments on the restraint stress-mediated amelioration of immune thrombocytopenia (ITP) (B) were analyzed. The data are representative of three independent experiments with two mice per group (n=6). ** P<0.01 compared with the respective vehicle groups in the tanshinone IIA vs. vehicle treatments (B).
The effects of tanshinone I (A), crytotanshinone (B), tanshinone IIA sodium sulfate (C) treatments on the restraint stress-mediated amelioration of immune thrombocytopenia (ITP) were analyzed. The data are representative of three independent experiments with two mice per group (n=6). * P<0.05, ** P<0.01 compared with the respective vehicle without stress (0 h) groups, #P<0.05, ##P<0.01 compared with the respective tanshinone IIA, without stress groups in the ITP experiments.
as §2

Assay [3] relates to B57BL/6J mice. The assay can be described thus: Cold stress-induced gastrointestinal leakage (circulating Evans blue). The note with it: stressed, 9 h groups with vs without TSNIIA, #P<0.05, FIG. 3. The procedure:
Experiment outlines (A). The effects of tanshinone IIA treatments on the amelioration of cold exposure-induced gastrointestinal leakage (B) were analyzed. The data are representative of three independent experiments with two mice per group (n=6). ** P<0.01 compared with the respective 5 h, no stress groups, #P<0.05 compared with the respective stress groups of each time course (B). EB: Evans blue.
(§3) The results of the exemplary rescue of restraint stress-induced gastrointestinal leakage by tanshinone IIA (TSNIIA) treatments are shown in FIG. 1. Evans blue, a gastrointestinal non-absorbable dye, is able to bind circulating albumin to form dye-protein complexes, which cannot normally penetrate the endothelial cell layers of the vascular system, unless the tissue has been damaged (Yao et al., Contrast Media Mol Imaging 2018; 2018:7628037). Accordingly, circulating Evens blue levels are approximately and proportionally correlated to the levels of gastrointestinal injury.

A further assay has as its system cortisol. The assay is described as follows: Cold stress-induced plasma cortisol (ELISA). The note with it: mice, FIG. 5. As to the method:
The time course on the effects of tanshinone IIA treatments on the cold-mediated amelioration of immune thrombocytopenia (ITP) (A) and cold-induced elevation of cortisol (B) was analyzed. The data are representative of three independent experiments with two mice per group (n=6). ** P<0.01 compared with the respective vehicle (25° C.)/vehicle (0 h) groups.
Blood samples were collected from experimental mice under cold stress or restraint stress for 7 h. The plasma levels of cortisol were measured using an ELISA kit (Cayman Chemical, Ann Arbor, Mich., USA) as previously described (Chan et al., Oncotarget 2018; 9:12781-95).

Assay [4] concerns B57BL/6J mice. The assay is described as follows: Restraint stress-induced gastrointestinal leakage (circulating Evans blue). The note with it: stressed, 9 h groups with vs without TSNIIA, #P<0.05, FIG. 1. The procedure: Experiment outlines (A). The effects of tanshinone IIA treatments on the amelioration of restraint stress induced gastrointestinal leakage (B) were analyzed. The data are representative of three independent experiments with two mice per group (n=6). * P<0.05 compared with the respective 5 h, no stress groups, #P<0.05 compared with the respective stress groups of each time course (B). EB: Evans blue.
as §3

In a further assay the test system is E. coli, BL21. The assay is described as follows: Cold-suppressed bacterial clearance (surviving bacteria in spleen). To be noted: mice challenged i.v. with E. coli, compared to vehicle control (without immunosuppression) groups, FIG. 4D. As to the method:
as §1
The bacterium E. coli was cultured using standard methods. To analyze the immunosuppressive effects of cold exposure and restraint stress on bacterial clearance, following our previously developed methods (Chan et al., Oncotarget 2018; 9:12781-95), the experimental mice were challenged by intravenously administering bacteria (E. coli, BL21, 6×10^9 CFU/kg; no mortality within 24 h at 4° C.); a 40-h circulating equilibrium at a 25° C. environment was required before cold exposure (control groups: 25° C. exposure) and restraint stress. One day after treatment with cold exposure or restraint stress, the spleens of the euthanized mice were collected and weighed. After homogenization (homogenizer, BioSpec Products, Racine, Wis., USA) in PBS, surviving bacteria (colony forming units [CFUs]) in the spleen tissues were quantified using the standard plating method. […]

With tanshinone IIA sodium sulfate, in the assay on B57BL/6J mice [1], the “rescue of cold stress-mediated immunosuppression (ITP model)” value is recorded as “exert similar immune enhancing properties under cold stress”. For the same molecule, the “rescue of restraint stress-mediated immunosuppression (ITP model)” value in the assay on B57BL/6J mice [2] is “exert similar immune enhancing properties under psychological stress”.

Turning to `C[C@H]1COC2=C1C(=O)C(=O)c1c2ccc2c1CCCC2(C)C` [crytotanshinone], in the assay with B57BL/6J mice [1], the “rescue of cold stress-mediated immunosuppression (ITP model)” value is on record as “exert similar immune enhancing properties under cold stress”. Further, the “rescue of restraint stress-mediated immunosuppression (ITP model)” value with B57BL/6J mice [2] was “exert similar immune enhancing properties under psychological stress”.

As for `Cc1coc2c1C(=O)C(=O)c1c-2ccc2c(C)cccc12` [tanshinone I], the “rescue of cold stress-mediated immunosuppression (ITP model)” value in the assay with B57BL/6J mice [1] is listed as “exert similar immune enhancing properties under cold stress”. For the same molecule, the “rescue of restraint stress-mediated immunosuppression (ITP model)” value in the assay with B57BL/6J mice [2] is reported as “exert similar immune enhancing properties under psychological stress”.

In the case of `Cc1coc2c1C(=O)C(=O)c1c-2ccc2c1CCCC2(C)C` [tanshinone IIA], the “cold stress-induced gastrointestinal injury (circulating Evans blue levels)” value in the assay on B57BL/6J mice [3] is listed as “able to ameliorate cold stress-induced gastrointestinal injury”. Moreover, the “rescue of cold stress-mediated immunosuppression (ITP model)” value in the assay on B57BL/6J mice [1] is given as “exert similar immune enhancing properties under cold stress”. For the same molecule, the “platelet counts after cold stress in anti-platelet (CD41) Ig induced thrombocytopenia” value in the assay on B57BL/6J mice [1] (compared to vehicle control (without immunosuppression) groups, FIG. 4B) is “remain low and do not show statistical significance as compared to the vehicle control”. Besides, the “rescue of restraint stress-mediated immunosuppression (ITP model)” value in the assay on B57BL/6J mice [2] is “exert similar immune enhancing properties under psychological stress”. Further, in the assay on B57BL/6J mice [2] (restraint stress, compared to vehicle control (without immunosuppression) groups, FIG. 2), the “platelet counts after restraint stress in anti-platelet (CD41) Ig induced thrombocytopenia” value is “remain low and do not show statistical significance as compared to the vehicle control”. For the same molecule, the “cold stress-induced levels of circulating cortisol” value in the assay with cortisol was “counteract the cold stress-induced levels of circulating anti-inflammatory steroid hormone cortisol”. For the same molecule, in the assay with B57BL/6J mice [4], the “restraint stress-induced gastrointestinal injury (circulating Evans blue levels)” value is on record as “able to ameliorate stress-induced gastrointestinal injury”. Besides, in the assay with E. coli, BL21, the “bacterial clearance rate after cold stress” value is reported as “the bacterial clearance rate is high”.
